Experimental data from ChEMBL document CHEMBL1201862, “PubChem BioAssay data set” (2004).
The source made the active and inactive calls. Cut-off read from the data, not from the text of the source: actives have a measured IC50 and inactives only a lower limit.

Molecular target: Envelope glycoprotein gp160 (Human immunodeficiency virus 1, UniProt Q6QLK5)
Test: cell-free HIV fusion peptide-binding blockers – biochemical, uHTS, fluorescence dequenching, […] (AID 1986)

Chain of Envelope glycoprotein gp160 (Q6QLK5 whole entry, the tested form may be a part): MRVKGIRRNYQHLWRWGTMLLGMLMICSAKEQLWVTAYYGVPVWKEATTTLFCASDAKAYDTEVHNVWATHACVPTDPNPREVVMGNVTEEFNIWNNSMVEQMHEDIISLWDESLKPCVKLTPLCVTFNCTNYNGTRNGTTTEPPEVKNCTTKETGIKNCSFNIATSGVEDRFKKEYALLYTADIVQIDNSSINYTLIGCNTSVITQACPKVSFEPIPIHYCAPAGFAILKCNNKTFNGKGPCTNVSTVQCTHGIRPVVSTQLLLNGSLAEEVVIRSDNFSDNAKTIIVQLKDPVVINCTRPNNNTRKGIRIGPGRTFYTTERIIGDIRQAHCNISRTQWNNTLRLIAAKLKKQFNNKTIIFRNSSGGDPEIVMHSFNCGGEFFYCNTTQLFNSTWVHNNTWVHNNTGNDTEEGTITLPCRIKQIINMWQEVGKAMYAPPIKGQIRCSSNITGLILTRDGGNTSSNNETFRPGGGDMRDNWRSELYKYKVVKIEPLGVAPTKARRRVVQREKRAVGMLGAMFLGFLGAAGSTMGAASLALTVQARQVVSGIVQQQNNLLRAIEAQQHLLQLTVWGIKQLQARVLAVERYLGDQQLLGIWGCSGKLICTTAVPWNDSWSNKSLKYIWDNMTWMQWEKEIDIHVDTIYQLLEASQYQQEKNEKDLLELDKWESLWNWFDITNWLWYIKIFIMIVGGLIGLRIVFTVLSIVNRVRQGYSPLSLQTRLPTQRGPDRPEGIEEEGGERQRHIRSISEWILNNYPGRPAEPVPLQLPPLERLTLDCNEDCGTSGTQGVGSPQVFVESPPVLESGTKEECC

SMILES | IC50
COC(=O)c1sc(-c2ccc(C(C)(C)C)cc2)cc1NC(=O)c1ccccc1C(=O)O | 18.5 µM (active)
COc1ccc(/C=C2/SC(=S)N(CC(=O)O)C2=O)cc1OCc1ccc(Cl)cc1 | 16.5 µM (active)
